Kd and binding data for 3 compounds are collected here from publication PMC10375898 (2023).

Broadly, the Kd is the concentration at which binding is half-saturated. Read a high Kd as weaker binding.

Experiment [1] relates to 5'-(GACAGCUGCUGUC)2-3' duplex (single 5'CUG/3'GUC) (RNA, mismatch bulge abasic) GACAGCUGCUGUC
Description: fluorescence titration. The settings on record: Na+ 200 mM NaCl; 8 mM NaH2PO4, pH 7.0, 1 mM EDTA, 40 µg/mL BSA, room temperature; 100 nM dye.

Experiment [2] has the same test system. Description: NMR (WaterLOGSY, 1D 1H imino and aromatic). Particulars: 10 mM Na2HPO4/NaH2PO4, pH 6.0, 0.05 mM EDTA.
For experiment [3] the test system is unchanged. Description: To-Pro-1 dye displacement (fluorescence). Particulars: Na+ 200 mM NaCl, 8 mM NaH2PO4; To-Pro-1 (100 nM) displaced; Kd from competitive fit (Ki).
Experiment [4] has as its system r(CUG)10 (RNA, repeat) CUGCUGCUGCUGCUGCUGCUGCUGCUGCUG
Description: competitive Chem-CLIP. The settings on record: competes with 50 μM of 1; 0 to 500 μM.

Experiment [5] has the same test system. Description: in vitro Chem-CLIP (photo-cross-linking pull-down). Particulars: covalent; 26 ± 7% pulled down at 100 μM.
The subject of experiment [6] is r(CUG)8 with GAAA hairpin loop (RNA, repeat) CCGCUGCUGCUGCUGCGAAAGCUGCUGCUGCUGCGG
Description: in vitro Chem-CLIP (photo-cross-linking pull-down). Particulars: covalent; 100 μM.

For `C[n+]1c(C=C2C=CN(CCC[N+](C)(C)C)c3ccccc32)sc2ccccc21`, in experiment [1], the dissociation constant Kd is on record as 31 ± 2 nM. This counts as double-digit nanomolar.

On to `CCC(=O)NC1=Nc2cccc3cccc(c23)N1`, for which the binding entry in experiment [2] and in experiment [4] was “yes” throughout. Moreover, the equilibrium dissociation constant (Kd) in experiment [3] was 1400 ± 300 nM.

Consider `C#CCCC1(CCC(=O)NC2=Nc3cccc4cccc(c34)N2)N=N1`, for which the binding result in experiment [5] and in experiment [6] was “yes” each time. For the same compound, the Kd in experiment [3] is 1200 ± 200 nM.
